This note sets out measurements from patent EP4722358A1 (AJOU UNIVERSITY INDUSTRY-ACADEMIC COOPERATION FOUNDATION, priority 2023, dated 2024).

Test in all cases: Enzymatic reaction rate with glycerol (MBTH assay)
Common to all, as to format: biochemical

Assay [1] concerns Klebsiella pneumoniae fused glycerol dehydratase fGDHt variant A177M(α). Conditions: substrate glycerol, MBTH assay 5 minutes, deoxygenated 35 mM phosphate buffer (pH 8.0), 2 µM coenzyme B12. The method, then: (§1) The activities of the wild-type and variant enzymes were measured at 25°C using 3-methyl-2-benzothiazolinone hydrazone (MBTH). To eliminate oxygen inactivation, the enzymes were incubated for 5 minutes in 35 mM phosphate buffer (pH 8.0) stirred with a negative pressure pump. The reaction was initiated by the addition of glycerol. The absorbance measured at 670 nm of the variant was compared with that of the wild-type fGDHt to determine the relative substrate activity (FIG. 10). The MBTH assay was performed as follows:
(§2) The reaction was then initiated by adding glycerol, the substrate to the assay mixture. The reaction was performed for 5 minutes and the reaction was terminated by adding 12 mg/mL MBTH and 0.1 M potassium citrate buffer (pH 3.6). Five minutes after the reaction was terminated, FeCl3 was added thereto and the reaction was performed for 15 minutes. The absorbance was measured at 670 nm.
(§3) Km and Kcat were calculated using the following Equation (Michaelis-Menten equation): v = (d[P])/(dt) = Vmax ([S])/(KM + [S]) = kcat [E]0 ([S])/(KM + [S]) [formula]
(§4) wherein Km is the Michaelis constant and Kcat is the enzyme turnover number.

The test system of assay [2] is Klebsiella pneumoniae fused glycerol dehydratase fGDHt variant M158W(β). Conditions: substrate glycerol, MBTH assay 5 minutes, deoxygenated 35 mM phosphate buffer (pH 8.0), 2 µM coenzyme B12. The method, then:
as §1, §2, §3, §4

The subject of assay [3] is Klebsiella pneumoniae glycerol dehydratase, fGDHt (alpha-beta fused subunit, stop codon TAA changed to glutamine CAA), SEQ ID NO: 4. Conditions: substrate glycerol, MBTH assay 5 minutes, deoxygenated 35 mM phosphate buffer (pH 8.0), 2 µM coenzyme B12. The method, then: as §1, §2, §3, §4
Assay [4] deals with Klebsiella pneumoniae fused glycerol dehydratase fGDHt variant A177M/L113W/M158W(α/β/β). Conditions: substrate glycerol, MBTH assay 5 minutes, deoxygenated 35 mM phosphate buffer (pH 8.0), 2 µM coenzyme B12. Here is the method: as §1, §2, §3, §4
Assay [5] deals with Klebsiella pneumoniae fused glycerol dehydratase fGDHt variant L113W(β). Conditions: substrate glycerol, MBTH assay 5 minutes, deoxygenated 35 mM phosphate buffer (pH 8.0), 2 µM coenzyme B12. Here is the method:
as §1, §2, §3, §4

In assay [6] the test system is Klebsiella pneumoniae fused glycerol dehydratase fGDHt variant A177M/L113W(α/β). Conditions: substrate glycerol, MBTH assay 5 minutes, deoxygenated 35 mM phosphate buffer (pH 8.0), 2 µM coenzyme B12. Here is the method:
as §1, §2, §3, §4

Assay [7] concerns Klebsiella pneumoniae fused glycerol dehydratase fGDHt variant A177M/M158W(α/β). The following applies: substrate glycerol. The method, then:
as §1, §2, §3, §4

Assay [8] has as its system Klebsiella pneumoniae fused glycerol dehydratase fGDHt variant L113F(β). The following applies: substrate glycerol. The method, then: as §1, §2, §3, §4
Setting [9] is: FGDHt(A177M/M158W(α/β)), MBTH assay 5 minutes, deoxygenated 35 mM phosphate buffer (pH 8.0), 2 µM coenzyme B12.
Where [10] appears, read: fGDHt (L113F(β)), MBTH assay 5 minutes, deoxygenated 35 mM phosphate buffer (pH 8.0), 2 µM coenzyme B12.

Turning to `OCC(O)CO` [glycerol], the Kcat in assay [1] stood at 107.48 ± 14.91 s⁻¹; in assay [3], 230.28 ± 10.63 s⁻¹; in assay [4] it was 28.93 ± 2.17 s⁻¹; in assay [5], 31.82 ± 10.99 s⁻¹; in assay [6], 31.96 ± 9.42 s⁻¹; in assay [7] (setting [9]) it was 155.47 ± 13.23 s⁻¹. In assay [8] (setting [10]), the Kcat was determined as 208.62 ± 21.8 s⁻¹. Also, the Km (in general, the substrate concentration at which the rate is half of its maximum) in assay [1] worked out at 360 ± 70 µM; in assay [2], 340 ± 50 µM; in assay [3] it was 270 ± 30 µM; in assay [4], 140 ± 40 µM; in assay [5] it was 520 ± 170 µM; in assay [7] (setting [9]), 150 ± 40 µM. The Km in assay [8] (setting [10]) came out at 240 ± 60 µM. In addition, the “kcat/Km higher than those of fGDHt” value is 8% in assay [7] (A177M/M158W (α/β) compared with fGDHt) and 6% in assay [8] (L113F (β) compared with fGDHt).
